Earlier results as cited in patent US20050123576A1, “Mupirocin compositions for topical use, an improved process of making same and methods of using same” (priority 2003, published 2005).

Legend:
[1] = glycerol, mineral oil, caprylic-capric triglyceride, isopropyl myristate, isopropyl palmitate, octyl dodecanol (Eutanol G), isopropyl stearate
[2] = in the presence of water, acids and bases

For `C/C(=C\C(=O)OCCCCCCCCC(=O)O)C[C@@H]1OC[C@H](C[C@@H]2O[C@H]2[C@@H](C)[C@H](C)O)[C@@H](O)[C@H]1O` [Mupirocin], the “solubility in pharmaceutically acceptable carriers” value [1] is listed as “insoluble” and the “stability (hydrolysis and rearrangement reactions)” value [2] is listed as “unstable”.
